Common to all, as to format: biochemical
Test [1] addresses T1, AsDMS (Aquimarina spongiae drimenol synthase) (Aquimarina spongiae, UniProt A0A1M6CXF0).
T1 construct: gene SAMN04488508_102320
Briefly: GC-MS detection of drimenol. As to conditions: 50 mM Tris-HCl pH 8.0, 2 mM MgCl2, 1 mM DTT, 100 μM FPP, 200 nM enzyme, 30 °C, 1 h, with or without alkaline phosphatase.

The target of test [2] is T2, AsDMS (Aquimarina spongiae drimenol synthase) (Aquimarina spongiae, UniProt A0A1M6CXF0, D182N/K183D, form not given).
T2 construct: gene SAMN04488508_102320
The test can be described thus: GC-MS detection of drimenol. Conditions: 50 mM Tris-HCl pH 8.0, 2 mM MgCl2, 1 mM DTT, 100 μM FPP, 200 nM enzyme, 30 °C, 1 h, with or without alkaline phosphatase.

Another test deals with T3, FeDMS (Flavivirga eckloniae, UniProt A0A2K9PVZ9).
T3 construct: gene C1H87_21965
Briefly: GC-MS detection of drimenol. As to conditions: 50 mM Tris-HCl pH 8.0, 2 mM MgCl2, 1 mM DTT, 100 μM FPP, 500 nM enzyme, 30 °C, 1 h, with or without alkaline phosphatase.

In test [3] the target is T1, AsDMS (Aquimarina spongiae drimenol synthase). The test can be described thus: GC-MS quantification of drimenol, Michaelis-Menten fit. Conditions: 50 mM Tris-HCl pH 8.0, 2 mM MgCl2, 1 mM DTT, 0-120 μM FPP, 200 nM enzyme, 30 °C.
Test [4] shares this target. The test can be described thus: GC-MS detection of drimenol. As to conditions: 50 mM Tris-HCl pH 8.0, 2 mM MgCl2, 1 mM DTT, 100 μM FPP, 200 nM enzyme, 30 °C, 1 h, with or without alkaline phosphatase. The source holds these as a separate data set.

T1 sequence (A0A1M6CXF0 entry or part of it): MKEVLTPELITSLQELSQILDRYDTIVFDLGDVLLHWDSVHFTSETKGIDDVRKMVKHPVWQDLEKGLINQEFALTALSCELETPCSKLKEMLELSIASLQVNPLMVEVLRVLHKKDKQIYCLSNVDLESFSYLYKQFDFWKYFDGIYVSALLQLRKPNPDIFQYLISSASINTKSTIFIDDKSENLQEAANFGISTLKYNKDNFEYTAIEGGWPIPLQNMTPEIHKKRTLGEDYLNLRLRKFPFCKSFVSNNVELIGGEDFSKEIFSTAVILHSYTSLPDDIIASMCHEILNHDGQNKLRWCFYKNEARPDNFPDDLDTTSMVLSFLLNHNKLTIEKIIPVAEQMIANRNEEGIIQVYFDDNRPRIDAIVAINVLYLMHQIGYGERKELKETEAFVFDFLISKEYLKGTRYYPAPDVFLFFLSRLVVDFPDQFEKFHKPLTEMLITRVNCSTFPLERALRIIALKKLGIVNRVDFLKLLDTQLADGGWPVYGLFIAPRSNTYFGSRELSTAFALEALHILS
T2 sequence (A0A1M6CXF0 entry or part of it D182N/K183D, form open): as the sequence (A0A1M6CXF0 entry or part of it) above, with D182N, K183D counted along it
T3 sequence (A0A2K9PVZ9 entry or part of it): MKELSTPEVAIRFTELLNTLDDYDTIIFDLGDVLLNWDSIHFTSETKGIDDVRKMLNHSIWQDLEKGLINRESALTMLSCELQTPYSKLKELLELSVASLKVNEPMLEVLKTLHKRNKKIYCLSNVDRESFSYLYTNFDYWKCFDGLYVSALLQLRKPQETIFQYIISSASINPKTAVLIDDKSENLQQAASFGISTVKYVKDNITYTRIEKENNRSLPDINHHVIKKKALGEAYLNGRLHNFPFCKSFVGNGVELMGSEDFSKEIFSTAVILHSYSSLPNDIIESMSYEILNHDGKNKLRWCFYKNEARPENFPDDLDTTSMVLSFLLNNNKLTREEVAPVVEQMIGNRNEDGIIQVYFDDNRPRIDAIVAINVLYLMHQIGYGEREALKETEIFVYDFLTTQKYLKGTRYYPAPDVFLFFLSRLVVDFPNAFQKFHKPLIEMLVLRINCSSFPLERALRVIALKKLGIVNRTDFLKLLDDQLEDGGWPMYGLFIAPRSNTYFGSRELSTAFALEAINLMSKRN

As to `CC(C)=CCC/C(C)=C/CC/C(C)=C/CO[P@@](=O)(O)OP(=O)(O)O` [FPP], the “GC-MS detection of drimenol” value in test [1] was “The D196N mutant displayed a significant decrease in activity”; in test [2], “a double mutant D196N/K197D”; at FeDMS, “five proteins (AsDMS, A474DMS, A119DMS, FeDMS, and RbDMS) with FPP yielded a single compound”; in test [4] it was “exhibited almost equipotent activity to that of the WT”. Besides, in test [3], the Km is 9.59 ± 2.15 µM.

A word on the Km: it is the substrate concentration at which the rate is half of its maximum.

The values above are taken from publication PMC9128629, “Identification and Characterization of Bifunctional Drimenol Synthases of Marine Bacterial Origin” (ACS Chemical Biology, 2022).
